Assays:
Assay in all cases: KINOMEscan
Type in all cases: binding
Conditions in all cases: 35 at 1 µM; read-out: % inhibition
[1] = biological target: T1, AMPK-alpha1 (Homo sapiens, UniProt Q13131)
T1 construct: purchased Eurofins DiscoverX (KINOMEscan)
Experimental: (§1) KinomeScan Assay on 35 was performed as previously described at EuroFins DiscoverX (Fremont, CA, USA).

[2] = biological target: T2, BLK (Homo sapiens, UniProt P51451)
T2 construct: purchased Eurofins DiscoverX (KINOMEscan)
Experimental: as §1

[3] = biological target: T3, BUB1 (Homo sapiens, UniProt O43683)
T3 construct: purchased Eurofins DiscoverX (KINOMEscan)
Experimental: as §1

[4] = biological target: T4, CAMK2A (Homo sapiens, UniProt Q9UQM7)
T4 construct: purchased Eurofins DiscoverX (KINOMEscan)
Experimental: as §1

[5] = biological target: T5, CAMK2B (Homo sapiens, UniProt Q13554)
T5 construct: purchased Eurofins DiscoverX (KINOMEscan)
Experimental: as §1

[6] = biological target: T6, CIT (Homo sapiens, UniProt O14578)
T6 construct: purchased Eurofins DiscoverX (KINOMEscan)
Experimental: as §1

[7] = biological target: T7, CLK3 (Homo sapiens, UniProt P49761)
T7 construct: purchased Eurofins DiscoverX (KINOMEscan)
Experimental: as §1

[8] = biological target: T8, CLK4 (Homo sapiens, UniProt Q9HAZ1)
T8 construct: purchased Eurofins DiscoverX (KINOMEscan)
Experimental: as §1

[9] = biological target: T9, CSNK1G1 (Homo sapiens, UniProt Q9HCP0)
T9 construct: purchased Eurofins DiscoverX (KINOMEscan)
Experimental: as §1

[10] = biological target: T10, DRAK1 (Homo sapiens, UniProt Q9UEE5)
T10 construct: purchased Eurofins DiscoverX (KINOMEscan)
Experimental: as §1

[11] = biological target: T11, DYRK2 (Homo sapiens, UniProt Q92630)
T11 construct: purchased Eurofins DiscoverX (KINOMEscan)
Experimental: as §1

[12] = biological target: T12, EGFR(G719S) (Homo sapiens, UniProt P00533, G719S)
T12 construct: purchased Eurofins DiscoverX (KINOMEscan)
Experimental: as §1

[13] = biological target: T13, EGFR(T790M) (Homo sapiens, UniProt P00533, T790M)
T13 construct: purchased Eurofins DiscoverX (KINOMEscan)
Experimental: as §1

[14] = biological target: T14, EPHA1 (Homo sapiens, UniProt P21709)
T14 construct: purchased Eurofins DiscoverX (KINOMEscan)
Experimental: as §1

[15] = biological target: T15, EPHA7 (Homo sapiens, UniProt Q15375)
T15 construct: purchased Eurofins DiscoverX (KINOMEscan)
Experimental: as §1

[16] = biological target: T16, EPHB1 (Homo sapiens, UniProt P54762)
T16 construct: purchased Eurofins DiscoverX (KINOMEscan)
Experimental: as §1

[17] = biological target: T17, JAK2(JH1domain-catalytic) (Homo sapiens, UniProt O60674)
T17 construct: JAK2(JH1domain-catalytic); purchased Eurofins DiscoverX (KINOMEscan)
Experimental: as §1

[18] = biological target: T18, JNK1 (Homo sapiens, UniProt P45983)
T18 construct: purchased Eurofins DiscoverX (KINOMEscan)
Experimental: as §1

[19] = biological target: T19, LTK (Homo sapiens, UniProt P29376)
T19 construct: purchased Eurofins DiscoverX (KINOMEscan)
Experimental: as §1

[20] = biological target: T20, MAK (Homo sapiens, UniProt P20794)
T20 construct: purchased Eurofins DiscoverX (KINOMEscan)
Experimental: as §1

[21] = biological target: T21, MAPKAPK5 (Homo sapiens, UniProt Q8IW41)
T21 construct: purchased Eurofins DiscoverX (KINOMEscan)
Experimental: as §1

[22] = biological target: T22, MRCKA (Homo sapiens, UniProt Q5VT25)
T22 construct: purchased Eurofins DiscoverX (KINOMEscan)
Experimental: as §1

[23] = biological target: T23, MRCKB (Homo sapiens, UniProt Q9Y5S2)
T23 construct: purchased Eurofins DiscoverX (KINOMEscan)
Experimental: as §1

[24] = biological target: T24, NDR1 (Homo sapiens, UniProt Q15208)
T24 construct: purchased Eurofins DiscoverX (KINOMEscan)
Experimental: as §1

[25] = biological target: T25, PAK1 (Homo sapiens, UniProt Q13153)
T25 construct: purchased Eurofins DiscoverX (KINOMEscan)
Experimental: as §1

[26] = biological target: T26, PFTK1 (Homo sapiens, UniProt O94921)
T26 construct: purchased Eurofins DiscoverX (KINOMEscan)
Experimental: as §1

[27] = biological target: T27, PIK4CB (Homo sapiens, UniProt Q9UBF8)
T27 construct: purchased Eurofins DiscoverX (KINOMEscan)
Experimental: as §1

[28] = biological target: T28, PIM1 (Homo sapiens, UniProt P11309)
T28 construct: purchased Eurofins DiscoverX (KINOMEscan)
Experimental: as §1

[29] = biological target: T29, PIM3 (Homo sapiens, UniProt Q86V86)
T29 construct: purchased Eurofins DiscoverX (KINOMEscan)
Experimental: as §1

[30] = biological target: T30, PIP5K1A (Homo sapiens, UniProt Q99755)
T30 construct: purchased Eurofins DiscoverX (KINOMEscan)
Experimental: as §1

[31] = biological target: T31, PLK2 (Homo sapiens, UniProt Q9NYY3)
T31 construct: purchased Eurofins DiscoverX (KINOMEscan)
Experimental: as §1

[32] = biological target: T32, PRKG1 (Homo sapiens, UniProt Q13976)
T32 construct: purchased Eurofins DiscoverX (KINOMEscan)
Experimental: as §1

[33] = biological target: T33, RET(V804M) (Homo sapiens, UniProt P07949, V804M)
T33 construct: purchased Eurofins DiscoverX (KINOMEscan)
Experimental: as §1

[34] = biological target: T34, RIOK2 (Homo sapiens, UniProt Q9BVS4)
T34 construct: purchased Eurofins DiscoverX (KINOMEscan)
Experimental: as §1

[35] = biological target: T35, ROCK2 (Homo sapiens, UniProt O75116)
T35 construct: purchased Eurofins DiscoverX (KINOMEscan)
Experimental: as §1

[36] = biological target: T36, SRMS (Homo sapiens, UniProt Q9H3Y6)
T36 construct: purchased Eurofins DiscoverX (KINOMEscan)
Experimental: as §1

[37] = biological target: T37, SRPK1 (Homo sapiens, UniProt Q96SB4)
T37 construct: purchased Eurofins DiscoverX (KINOMEscan)
Experimental: as §1

[38] = biological target: T38, TAOK2 (Homo sapiens, UniProt Q9UL54)
T38 construct: purchased Eurofins DiscoverX (KINOMEscan)
Experimental: as §1

[39] = biological target: T39, WNK2 (Homo sapiens, UniProt Q9Y3S1)
T39 construct: purchased EuroFins DiscoverX (Fremont, CA, USA)
Experimental: as §1

[40] = biological target: T40, WNK4 (Homo sapiens, UniProt Q96J92)
T40 construct: purchased EuroFins DiscoverX (Fremont, CA, USA)
Experimental: as §1

[41] = biological target: T41, YANK1 (Homo sapiens, UniProt Q8WU08)
T41 construct: purchased EuroFins DiscoverX (Fremont, CA, USA)
Experimental: as §1

[42] = biological target: T42, YANK3 (Homo sapiens, UniProt Q86UX6)
T42 construct: purchased EuroFins DiscoverX (Fremont, CA, USA)
Experimental: as §1

[43] = biological target: T43, ZAP70 (Homo sapiens, UniProt P43403)
T43 construct: purchased EuroFins DiscoverX (Fremont, CA, USA)
Experimental: as §1

T23 sequence (Q9Y5S2 whole entry): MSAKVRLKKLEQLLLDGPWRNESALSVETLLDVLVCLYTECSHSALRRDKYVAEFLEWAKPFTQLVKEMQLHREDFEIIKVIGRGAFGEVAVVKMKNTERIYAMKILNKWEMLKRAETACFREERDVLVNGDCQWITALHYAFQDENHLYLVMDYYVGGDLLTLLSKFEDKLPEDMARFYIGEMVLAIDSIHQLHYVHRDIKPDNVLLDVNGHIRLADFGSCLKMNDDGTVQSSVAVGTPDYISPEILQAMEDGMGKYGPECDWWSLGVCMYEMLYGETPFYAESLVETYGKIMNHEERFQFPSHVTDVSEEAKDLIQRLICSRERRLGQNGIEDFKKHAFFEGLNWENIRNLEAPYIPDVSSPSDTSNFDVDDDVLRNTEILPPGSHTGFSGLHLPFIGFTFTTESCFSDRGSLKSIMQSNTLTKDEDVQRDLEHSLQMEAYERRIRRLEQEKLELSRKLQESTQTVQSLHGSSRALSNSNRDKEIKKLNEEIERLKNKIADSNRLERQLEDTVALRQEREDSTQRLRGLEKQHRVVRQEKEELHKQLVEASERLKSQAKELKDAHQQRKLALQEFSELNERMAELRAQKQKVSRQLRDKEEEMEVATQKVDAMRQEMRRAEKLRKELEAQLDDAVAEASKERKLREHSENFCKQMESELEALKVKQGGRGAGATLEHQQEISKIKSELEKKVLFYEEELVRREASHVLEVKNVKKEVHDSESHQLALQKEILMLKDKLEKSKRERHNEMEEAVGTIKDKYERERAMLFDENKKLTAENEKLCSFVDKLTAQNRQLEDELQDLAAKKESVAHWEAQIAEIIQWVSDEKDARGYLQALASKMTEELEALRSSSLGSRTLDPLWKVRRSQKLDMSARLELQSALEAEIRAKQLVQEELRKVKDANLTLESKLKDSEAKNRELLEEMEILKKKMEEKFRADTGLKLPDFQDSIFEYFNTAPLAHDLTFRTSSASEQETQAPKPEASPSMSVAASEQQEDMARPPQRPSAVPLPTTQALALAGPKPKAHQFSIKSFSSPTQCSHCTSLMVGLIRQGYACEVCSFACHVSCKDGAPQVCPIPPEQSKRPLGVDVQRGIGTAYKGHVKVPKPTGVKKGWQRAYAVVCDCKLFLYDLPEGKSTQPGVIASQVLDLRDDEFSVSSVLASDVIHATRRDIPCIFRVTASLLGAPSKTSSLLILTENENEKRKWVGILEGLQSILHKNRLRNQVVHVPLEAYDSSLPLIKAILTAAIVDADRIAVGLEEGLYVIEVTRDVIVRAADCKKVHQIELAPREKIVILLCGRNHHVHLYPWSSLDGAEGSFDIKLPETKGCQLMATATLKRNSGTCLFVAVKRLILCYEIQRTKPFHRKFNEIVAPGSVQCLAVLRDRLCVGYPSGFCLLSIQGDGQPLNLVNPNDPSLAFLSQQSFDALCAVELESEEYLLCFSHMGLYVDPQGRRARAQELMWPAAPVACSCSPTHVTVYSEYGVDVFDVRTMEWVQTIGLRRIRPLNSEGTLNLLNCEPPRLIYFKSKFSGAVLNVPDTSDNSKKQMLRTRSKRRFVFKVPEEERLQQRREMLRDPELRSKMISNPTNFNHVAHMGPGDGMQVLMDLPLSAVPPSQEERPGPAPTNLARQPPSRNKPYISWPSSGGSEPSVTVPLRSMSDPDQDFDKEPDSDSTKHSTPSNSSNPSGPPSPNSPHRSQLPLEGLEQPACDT
T38 sequence (Q9UL54 whole entry): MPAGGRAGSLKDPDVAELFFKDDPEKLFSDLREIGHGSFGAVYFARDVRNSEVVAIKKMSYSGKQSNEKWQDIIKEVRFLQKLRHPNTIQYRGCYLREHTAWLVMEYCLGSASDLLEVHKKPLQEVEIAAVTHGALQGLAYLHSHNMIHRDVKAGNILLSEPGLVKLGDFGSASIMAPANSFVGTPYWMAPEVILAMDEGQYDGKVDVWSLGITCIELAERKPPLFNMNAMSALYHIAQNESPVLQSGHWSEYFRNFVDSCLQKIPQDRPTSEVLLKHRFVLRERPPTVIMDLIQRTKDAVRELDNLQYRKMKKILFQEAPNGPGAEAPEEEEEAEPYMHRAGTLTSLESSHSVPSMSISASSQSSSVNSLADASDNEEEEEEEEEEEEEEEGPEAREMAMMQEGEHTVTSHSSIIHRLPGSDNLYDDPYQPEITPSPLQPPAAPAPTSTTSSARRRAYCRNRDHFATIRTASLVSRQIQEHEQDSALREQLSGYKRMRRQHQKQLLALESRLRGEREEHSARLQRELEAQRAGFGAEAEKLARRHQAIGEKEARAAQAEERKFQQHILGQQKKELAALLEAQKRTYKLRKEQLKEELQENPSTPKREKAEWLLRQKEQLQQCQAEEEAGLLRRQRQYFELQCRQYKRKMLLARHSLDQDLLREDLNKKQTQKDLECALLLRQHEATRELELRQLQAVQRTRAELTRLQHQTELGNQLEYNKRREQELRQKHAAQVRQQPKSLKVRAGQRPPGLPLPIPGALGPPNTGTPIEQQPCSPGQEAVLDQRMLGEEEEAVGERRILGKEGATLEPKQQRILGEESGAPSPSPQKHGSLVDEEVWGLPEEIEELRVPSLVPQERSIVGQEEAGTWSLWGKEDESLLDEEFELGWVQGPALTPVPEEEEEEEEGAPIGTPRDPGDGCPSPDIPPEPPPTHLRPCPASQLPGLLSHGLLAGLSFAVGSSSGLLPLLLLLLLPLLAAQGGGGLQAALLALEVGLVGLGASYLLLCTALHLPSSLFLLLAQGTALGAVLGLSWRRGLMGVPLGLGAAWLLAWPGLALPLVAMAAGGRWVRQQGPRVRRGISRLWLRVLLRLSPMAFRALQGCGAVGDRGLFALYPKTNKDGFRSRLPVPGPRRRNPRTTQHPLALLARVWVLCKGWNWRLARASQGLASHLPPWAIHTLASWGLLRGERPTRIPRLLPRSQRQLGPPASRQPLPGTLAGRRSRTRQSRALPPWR
T15 sequence (Q15375 28-998): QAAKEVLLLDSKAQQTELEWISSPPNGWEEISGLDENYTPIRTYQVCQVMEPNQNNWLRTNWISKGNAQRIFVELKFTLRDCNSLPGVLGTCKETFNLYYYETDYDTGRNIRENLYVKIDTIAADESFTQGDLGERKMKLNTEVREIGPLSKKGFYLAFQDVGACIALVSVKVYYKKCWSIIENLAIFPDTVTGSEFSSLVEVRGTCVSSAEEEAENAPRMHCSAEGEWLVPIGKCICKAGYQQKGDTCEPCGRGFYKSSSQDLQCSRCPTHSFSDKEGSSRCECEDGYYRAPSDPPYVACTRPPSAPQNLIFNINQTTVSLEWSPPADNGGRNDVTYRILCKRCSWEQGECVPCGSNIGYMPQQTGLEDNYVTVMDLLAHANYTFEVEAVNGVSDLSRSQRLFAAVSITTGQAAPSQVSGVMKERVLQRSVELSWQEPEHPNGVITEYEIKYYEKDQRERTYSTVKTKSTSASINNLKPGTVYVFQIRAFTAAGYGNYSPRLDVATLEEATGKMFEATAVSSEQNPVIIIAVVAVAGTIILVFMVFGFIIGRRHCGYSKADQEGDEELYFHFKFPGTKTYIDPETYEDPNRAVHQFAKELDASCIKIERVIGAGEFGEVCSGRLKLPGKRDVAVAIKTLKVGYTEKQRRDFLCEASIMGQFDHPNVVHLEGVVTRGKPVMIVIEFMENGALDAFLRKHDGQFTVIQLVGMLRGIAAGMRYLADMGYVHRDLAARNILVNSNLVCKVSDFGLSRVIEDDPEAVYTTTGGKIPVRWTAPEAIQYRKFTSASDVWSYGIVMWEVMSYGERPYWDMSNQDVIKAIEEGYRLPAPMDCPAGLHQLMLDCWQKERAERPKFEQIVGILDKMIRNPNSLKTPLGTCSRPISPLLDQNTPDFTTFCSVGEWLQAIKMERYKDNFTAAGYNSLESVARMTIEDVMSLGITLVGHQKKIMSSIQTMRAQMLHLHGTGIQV
T30 sequence (Q99755 whole entry): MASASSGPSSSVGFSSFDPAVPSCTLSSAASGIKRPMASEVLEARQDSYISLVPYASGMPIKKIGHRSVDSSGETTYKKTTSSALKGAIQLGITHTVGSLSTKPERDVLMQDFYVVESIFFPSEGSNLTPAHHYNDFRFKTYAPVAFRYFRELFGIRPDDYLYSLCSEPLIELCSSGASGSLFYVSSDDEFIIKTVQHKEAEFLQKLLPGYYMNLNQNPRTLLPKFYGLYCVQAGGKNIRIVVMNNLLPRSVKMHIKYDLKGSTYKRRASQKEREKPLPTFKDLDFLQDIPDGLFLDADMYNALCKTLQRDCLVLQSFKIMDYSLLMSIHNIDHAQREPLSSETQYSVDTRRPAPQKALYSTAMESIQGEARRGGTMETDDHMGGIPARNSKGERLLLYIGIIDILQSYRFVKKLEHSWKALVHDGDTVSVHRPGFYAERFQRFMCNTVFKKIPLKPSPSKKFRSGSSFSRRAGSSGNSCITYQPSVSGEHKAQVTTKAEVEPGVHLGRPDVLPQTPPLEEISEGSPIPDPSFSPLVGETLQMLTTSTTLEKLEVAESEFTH
T17 sequence (O60674 840-1132 limits assumed): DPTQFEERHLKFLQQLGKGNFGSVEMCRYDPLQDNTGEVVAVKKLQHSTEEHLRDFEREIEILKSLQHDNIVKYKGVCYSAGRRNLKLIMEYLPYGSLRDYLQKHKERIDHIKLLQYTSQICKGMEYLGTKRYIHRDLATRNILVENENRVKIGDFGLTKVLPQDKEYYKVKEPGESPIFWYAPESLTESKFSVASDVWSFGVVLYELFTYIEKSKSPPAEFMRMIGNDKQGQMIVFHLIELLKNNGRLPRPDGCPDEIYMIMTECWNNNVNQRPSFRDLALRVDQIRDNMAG
T28 sequence (P11309 whole entry): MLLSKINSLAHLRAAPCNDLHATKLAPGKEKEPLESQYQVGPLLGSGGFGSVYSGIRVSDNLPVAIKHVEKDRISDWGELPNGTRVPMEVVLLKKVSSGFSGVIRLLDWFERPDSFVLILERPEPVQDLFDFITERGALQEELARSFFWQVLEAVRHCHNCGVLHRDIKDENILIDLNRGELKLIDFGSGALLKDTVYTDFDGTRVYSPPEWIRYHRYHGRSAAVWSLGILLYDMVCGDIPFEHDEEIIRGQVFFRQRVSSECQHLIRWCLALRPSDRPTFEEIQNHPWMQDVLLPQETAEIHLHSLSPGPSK

Brc1ccc2nccc(Nc3ccc4cn[nH]c4c3)c2c1 [Compound 35, 6-Bromo-N-(1H-indazol-6-yl)quinolin-4-amine]
activity at 1 µM [1]: 100%
activity at 1 µM [2]: 96%
activity at 1 µM [3]: 93%
activity at 1 µM [4]: 100%
activity at 1 µM [5]: 100%
activity at 1 µM [6]: 86%
activity at 1 µM [7]: 100%
activity at 1 µM [8]: 100%
activity at 1 µM [9]: 100%
activity at 1 µM [10]: 100%
activity at 1 µM [11]: 100%
activity at 1 µM [12]: 97%
activity at 1 µM [13]: 78%
activity at 1 µM [14]: 100%
activity at 1 µM [15]: 100%
activity at 1 µM [16]: 100%
activity at 1 µM [17]: 98%
activity at 1 µM [18]: 83%
activity at 1 µM [19]: 100%
activity at 1 µM [20]: 100%
activity at 1 µM [21]: 100%
activity at 1 µM [22]: 100%
activity at 1 µM [23]: 100%
activity at 1 µM [24]: 69%
activity at 1 µM [25]: 85%
activity at 1 µM [26]: 69%
activity at 1 µM [27]: 100%
activity at 1 µM [28]: 100%
activity at 1 µM [29]: 100%
activity at 1 µM [30]: 100%
activity at 1 µM [31]: 100%
activity at 1 µM [32]: 100%
activity at 1 µM [33]: 100%
activity at 1 µM [34]: 100%
activity at 1 µM [35]: 91%
activity at 1 µM [36]: 87%
activity at 1 µM [37]: 100%
activity at 1 µM [38]: 91%
activity at 1 µM [39]: 100%
activity at 1 µM [40]: 100%
activity at 1 µM [41]: 100%
activity at 1 µM [42]: 100%
activity at 1 µM [43]: 100%
